Test results from the RepoRT retention time repository (doi:10.1016/j.jchromb.2020.122105).

Assays:
Settings in all cases: stereoisomer not certain
[1] = RP, Waters CORTECS T3, 100 × 2.1 mm, 2.7 µm, 0.3 mL/min, estimated dead time 0.73 min; A: water + 0.1% formic acid, pH 3; B: methanol + 0.1% formic acid, pH 3; gradient (min/%B) 0/0 5/0 25/100 30/100 30.1/0 35/0
[2] = RP, Waters CORTECS T3, 100 × 2.1 mm, 2.7 µm, 0.2 mL/min, estimated dead time 1.1 min; A: water + 0.1% formic acid, pH 3; B: methanol + 0.1% formic acid, pH 3; gradient (min/%B) 0/0 1/0 6/5 30/100 35/100 35.1/0 40/0
[3] = RP, Waters CORTECS T3, 100 × 2.1 mm, 2.7 µm, 0.3 mL/min, estimated dead time 0.73 min; A: water + 0.1% formic acid, pH 3; B: methanol + 0.1% formic acid, pH 3; gradient (min/%B) 0/0 1/0 6/5 30/100 35/100 35.1/0 40/0
[4] = RP, Thermo Scientific Hypercarb, 150 × 2.1 mm, 5 µm, 0.1 mL/min, estimated dead time 3.3 min; A: water + 0.1% formic acid, pH 3; B: methanol + 0.1% formic acid, pH 3; gradient (min/%B) 0/5 5/5 20/100 35/100 35.1/5 45/5
[5] = RP, Waters CORTECS T3, 100 × 2.1 mm, 2.7 µm, 0.15 mL/min, estimated dead time 1.5 min; A: water + 0.1% formic acid, pH 3; B: methanol + 0.1% formic acid, pH 3; gradient (min/%B) 0/5 5/5 25/95 25.1/100 35/100 35.1/5 45/5
[6] = RP, Waters ACQUITY UPLC BEH C18, 100 × 2.1 mm, 1.7 µm, 0.2 mL/min, estimated dead time 1.1 min; A: water + 0.1% formic acid, pH 3; B: methanol + 0.1% formic acid, pH 3; gradient (min/%B) 0/5 5/5 25/100 30/100 30.1/5 35/5
[7] = RP, Waters CORTECS T3, 100 × 2.1 mm, 2.7 µm, 0.25 mL/min, estimated dead time 0.88 min; A: water + 0.1% formic acid, pH 3; B: methanol + 0.1% formic acid, pH 3; gradient (min/%B) 0/5 5/5 25/95 25.1/100 35/100 35.1/5 45/5
[8] = RP, Waters ACQUITY UPLC BEH C18, 100 × 2.1 mm, 1.7 µm, 0.1 mL/min, estimated dead time 2.2 min; A: water + 0.1% formic acid, pH 3; B: methanol + 0.1% formic acid, pH 3; gradient (min/%B) 0/5 5/5 25/95 25.1/100 35/100 35.1/5 45/5
[9] = RP, Waters ACQUITY UPLC BEH C18, 100 × 2.1 mm, 1.7 µm, 0.2 mL/min, estimated dead time 1.1 min; A: water + 0.025% formic acid + 20 mM ammonium acetate + 0.055% ammonium hydroxide, pH 7; B: methanol; gradient (min/%B) 0/5 5/5 25/100 30/100 30.1/5 35/5
[10] = HILIC, Merck SeQuant ZIC-HILIC, 150 × 2.1 mm, 5 µm, 0.75 mL/min, estimated dead time 0.44 min; A: water + 10 mM ammonium formate, pH 6; B: 5% water + 95% acetonitrile + 10 mM ammonium formate, pH 6; gradient (min/%B) 0/95 5/95 20/57 25/57 30/95 40/95
[11] = HILIC, Merck SeQuant ZIC-HILIC, 150 × 2.1 mm, 5 µm, 0.75 mL/min, estimated dead time 0.44 min; A: water + 0.1% acetic acid + 10 mM ammonium acetate, pH 4; B: 5% water + 95% acetonitrile + 0.1% acetic acid + 10 mM ammonium acetate, pH 4; gradient (min/%B) 0/95 5/95 20/57 25/57 30/95 40/95
[12] = HILIC, Waters XBridge BEH Amide, 100 × 2.1 mm, 2.5 µm, 0.5 mL/min, estimated dead time 0.44 min; A: water + 0.1% acetic acid + 10 mM ammonium acetate, pH 4; B: 5% water + 95% acetonitrile + 0.1% acetic acid + 10 mM ammonium acetate, pH 4; gradient (min/%B) 0/95 5/95 20/57 25/57 30/95 40/95
[13] = RP, Waters ACQUITY UPLC BEH C18, 100 × 2.1 mm, 1.7 µm, 0.1 mL/min, estimated dead time 2.2 min; A: water + 0.1% formic acid, pH 3; B: methanol + 0.1% formic acid, pH 3; gradient (min/%B) 0/5 5/5 25/95 25.1/100 35/100 35.1/5 45/5; remark: listed apart in the source
[14] = RP, Waters CORTECS T3, 100 × 2.1 mm, 2.7 µm, 0.2 mL/min, estimated dead time 1.1 min; A: water + 0.1% formic acid, pH 3; B: methanol + 0.1% formic acid, pH 3; gradient (min/%B) 0/5 5/5 25/95 25.1/100 35/100 35.1/5 45/5
[15] = RP, Waters ACQUITY UPLC BEH C18, 100 × 2.1 mm, 1.7 µm, 0.1 mL/min, estimated dead time 2.2 min; A: water + 0.1% formic acid, pH 3; B: methanol + 0.1% formic acid, pH 3; gradient (min/%B) 0/5 5/5 25/100 30/100 30.1/5 35/5
[16] = RP, Waters CORTECS T3, 100 × 2.1 mm, 2.7 µm, 0.3 mL/min, estimated dead time 0.73 min; A: water + 0.1% formic acid, pH 3; B: methanol + 0.1% formic acid, pH 3; gradient (min/%B) 0/5 5/5 25/100 30/100 30.1/5 35/5
[17] = RP, Waters CORTECS T3, 100 × 2.1 mm, 2.7 µm, 0.3 mL/min, estimated dead time 0.73 min; A: water + 0.1% formic acid, pH 3; B: methanol + 0.1% formic acid, pH 3; gradient (min/%B) 0/0 5/0 25/100 30/100 30.1/0 35/0; remark: listed apart in the source
[18] = RP, Waters CORTECS T3, 100 × 2.1 mm, 2.7 µm, 0.2 mL/min, estimated dead time 1.1 min; A: water + 0.1% formic acid, pH 3; B: methanol + 0.1% formic acid, pH 3; gradient (min/%B) 0/0 1/0 6/5 30/100 35/100 35.1/0 40/0; remark: listed apart in the source
[19] = RP, Waters CORTECS T3, 100 × 2.1 mm, 2.7 µm, 0.1 mL/min, estimated dead time 2.2 min; A: water + 0.1% formic acid, pH 3; B: methanol + 0.1% formic acid, pH 3; gradient (min/%B) 0/0 1/0 6/5 30/100 35/100 35.1/0 40/0
[20] = RP, Waters CORTECS T3, 100 × 2.1 mm, 2.7 µm, 0.15 mL/min, estimated dead time 1.5 min; A: water + 0.1% formic acid, pH 3; B: methanol + 0.1% formic acid, pH 3; gradient (min/%B) 0/0 1/0 6/5 30/100 35/100 35.1/0 40/0
[21] = RP, Waters CORTECS T3, 100 × 2.1 mm, 2.7 µm, 0.3 mL/min, estimated dead time 0.73 min; A: water + 0.1% formic acid, pH 3; B: methanol + 0.1% formic acid, pH 3; gradient (min/%B) 0/0 1/0 6/5 30/100 35/100 35.1/0 40/0; remark: listed apart in the source
[22] = RP, Waters CORTECS T3, 100 × 2.1 mm, 2.7 µm, 0.25 mL/min, estimated dead time 0.88 min; A: water + 0.1% formic acid, pH 3; B: methanol + 0.1% formic acid, pH 3; gradient (min/%B) 0/0 1/0 6/5 30/100 35/100 35.1/0 40/0
[23] = RP, Waters CORTECS T3, 100 × 2.1 mm, 2.7 µm, 0.3 mL/min, estimated dead time 0.73 min; A: water + 0.1% formic acid, pH 3; B: methanol + 0.1% formic acid, pH 3; gradient (min/%B) 0/5 5/5 25/95 25.1/100 35/100 35.1/5 45/5
[24] = RP, Waters CORTECS T3, 100 × 2.1 mm, 2.7 µm, 0.2 mL/min, estimated dead time 1.1 min; A: water + 0.045% formic acid + 0.11% ammonium hydroxide, pH 7; B: methanol; gradient (min/%B) 0/5 5/5 25/95 25.1/100 35/100 35.1/5 45/5
[25] = RP, Waters ACQUITY UPLC BEH C18, 100 × 2.1 mm, 1.7 µm, 0.1 mL/min, estimated dead time 2.2 min; A: water + 0.045% formic acid + 0.11% ammonium hydroxide, pH 7; B: methanol; gradient (min/%B) 0/5 5/5 25/95 25.1/100 35/100 35.1/5 45/5
[26] = RP, Waters ACQUITY UPLC BEH C18, 100 × 2.1 mm, 1.7 µm, 0.2 mL/min, estimated dead time 1.1 min; A: water + 0.025% formic acid + 20 mM ammonium acetate + 0.055% ammonium hydroxide, pH 7; B: methanol; gradient (min/%B) 0/5 5/5 25/100 30/100 30.1/5 35/5; remark: listed apart in the source

With `CC(=O)NC(CCC(=O)O)C(=O)O` (racemic) [N-ACETYL-DL-GLUTAMIC ACID] the LC retention time [1] was 2.22 min, the LC retention time [2] was 3.1 min and the LC retention time [3] was 2.22 min. It also gave an LC retention time [4] of 24 min, an LC retention time [5] of 2.89 min and an LC retention time [6] of 2.27 min. For the same compound, the LC retention time [7] was 1.77 min, the LC retention time [8] was 4.43 min and the LC retention time [9] was 1.36 min. The LC retention time [10] was 14 min, the LC retention time [11] was 13.6 min and the LC retention time [12] was 13.6 min.
`CN(CC(=O)O)C(N)=NP(=O)(O)O` [CREATINE PHOSPHATE] showed an LC retention time [13] of 3.05 min.
In the case of `C[N+](C)(C)CCOP(=O)([O-])OCC(O)CO` (configuration not stated) [SN-GLYCERO-3-PHOSPHOCHOLINE], the LC retention time [4] is reported as 5.02 min and the LC retention time [13] is reported as 2.66 min.
With `Nc1nc2c(ncn2C2OC(CO)C(O)C2O)c(=O)[nH]1` (configuration not stated) [GUANOSINE] the LC retention time [2] was 7.02 min, the LC retention time [3] was 5.43 min and the LC retention time [14] was 10.9 min. It also gave an LC retention time [5] of 4.79 min, an LC retention time [6] of 3.31 min and an LC retention time [7] of 2.95 min. The LC retention time [15] was 2.74 min, the LC retention time [8] was 2.7 min and the LC retention time [9] was 1.76 min. For the same compound, the LC retention time [10] was 10.5 min, the LC retention time [11] was 10.1 min and the LC retention time [12] was 10.3 min.
In the case of `CC(=O)NCCc1c[nH]c2ccc(O)cc12` [N-ACETYLSEROTONIN], the LC retention time [16] is reported as 9.2 min, the LC retention time [17] is reported as 10.4 min and the LC retention time [18] is reported as 12.1 min. The LC retention time [19] was 10.6 min, the LC retention time [20] was 13.3 min and the LC retention time [21] was 10.8 min. For the same compound, the LC retention time [22] was 11.3 min, the LC retention time [14] was 15.3 min and the LC retention time [23] was 9.27 min. The LC retention time [5] was 11.8 min, the LC retention time [15] was 13.6 min and the LC retention time [24] was 10.7 min. It also gave an LC retention time [8] of 13.7 min, an LC retention time [25] of 13.7 min and an LC retention time [9] of 10.2 min. It also gave an LC retention time [26] of 10.6 min, an LC retention time [10] of 1.15 min and an LC retention time [11] of 1.09 min. The LC retention time [12] was 0.95 min.
`CC(=O)N[C@@H](Cc1ccccc1)C(=O)O` [N-ACETYL-L-PHENYLALANINE] gave an LC retention time [16] of 11.8 min, an LC retention time [17] of 12.8 min and an LC retention time [1] of 12.8 min. It also gave an LC retention time [19] of 13.6 min, an LC retention time [2] of 15.3 min and an LC retention time [3] of 13.6 min. For the same compound, the LC retention time [21] was 13.6 min, the LC retention time [22] was 14.4 min and the LC retention time [14] was 19 min. The LC retention time [23] was 12 min, the LC retention time [5] was 14.9 min and the LC retention time [6] was 13.8 min. It also gave an LC retention time [7] of 12.7 min, an LC retention time [15] of 17.3 min and an LC retention time [24] of 9.59 min. It also gave an LC retention time [8] of 17.7 min, an LC retention time [25] of 13.6 min and an LC retention time [9] of 8.81 min. The LC retention time [10] was 6.61 min, the LC retention time [11] was 5.57 min and the LC retention time [12] was 6.98 min.
Compound `NCCP(=O)(O)O` [(2-AMINOETHYL)PHOSPHONATE] has an LC retention time [14] of 2.44 min and an LC retention time [13] of 2.75 min.
In the case of `CC(=O)N[C@@H](CC(C)C)C(=O)O` [N-ACETYL-L-LEUCINE], the LC retention time [1] is reported as 12.2 min, the LC retention time [2] is reported as 14.6 min and the LC retention time [3] is reported as 12.8 min. The LC retention time [14] was 18.4 min, the LC retention time [5] was 14.3 min and the LC retention time [6] was 13.3 min. It also gave an LC retention time [7] of 12 min, an LC retention time [8] of 17.2 min and an LC retention time [9] of 6.59 min. The LC retention time [10] was 6.56 min, the LC retention time [11] was 5.95 min and the LC retention time [12] was 7.4 min.
`NC(=O)c1ccc[n+](C2OC(COP(=O)(O)OP(=O)(O)OCC3OC(n4cnc5c(N)ncnc54)C(O)C3O)C(O)C2O)c1` (configuration not stated) [NAD] showed an LC retention time [15] of 2.74 min and an LC retention time [13] of 2.78 min.
`C[N+](C)(C)CCOP(=O)(O)OP(=O)([O-])OCC1OC(n2ccc(N)nc2=O)C(O)C1O` (configuration not stated) [CYTIDINE 5'-DIPHOSPHOCHOLINE] gave an LC retention time [18] of 1.34 min, an LC retention time [20] of 1.78 min and an LC retention time [22] of 1.09 min. The LC retention time [13] was 2.72 min.
